Experimental data reported in US20100298299A1, “NON-PEPTIDE DERIVATIVES AS BRADYKININ B1 ANTAGONISTS” (priority 2007, published 2010).
pIC50, pKi: −log10 of the molar value. Where a name gives a salt, the structure may show the parent alone. Read-outs that look alike come from different tables or passages of the source.

Assays:
[1] = biological target: T1, recombinant human B1 receptors (Homo sapiens, UniProt P46663); assay: Functional assay: antagonist potency by cytosolic calcium measurement in CHO-B1 cells; assay type: cell-based
T1 construct: host or cells: CHO (CHO-B1)
T1 sequence (P46663 1-353): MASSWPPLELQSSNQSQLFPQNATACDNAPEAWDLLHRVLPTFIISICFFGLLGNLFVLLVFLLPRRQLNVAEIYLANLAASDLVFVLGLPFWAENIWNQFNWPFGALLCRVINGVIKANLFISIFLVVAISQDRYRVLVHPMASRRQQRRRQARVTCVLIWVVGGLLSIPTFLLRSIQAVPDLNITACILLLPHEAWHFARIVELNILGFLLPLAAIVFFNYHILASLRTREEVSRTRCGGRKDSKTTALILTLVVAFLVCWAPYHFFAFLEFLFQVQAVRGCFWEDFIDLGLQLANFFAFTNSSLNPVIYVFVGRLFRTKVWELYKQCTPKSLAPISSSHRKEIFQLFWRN
Experimental: Assessment of Antagonist Potency at B1 and B2 Receptors In Vitro by Measurement of Cytosolic Calcium Ion Concentration with a Plate Reader Fluorimeter in Cells Expressing Recombinant Human B1 or B2 Receptors
Chinese hamster ovary (CHO) cells stably expressing recombinant human B1 (CHO-B1, Euroscreen) or B2 (CHO-B2, Perkin-Elmer) receptors were cultured in Dulbecco's Modified Eagle's Medium (DMEM) containing 10% Fetal Calf Serum (FCS), 100 U/ml penicillin, 0.1 mg/ml streptomycin, 0.25 μg/ml amphotericin B, 1% Minimum Essential Medium Eagle (MEM), non essential amino acid solution, 600 μg/ml G418, 1% pyruvate (for the B2 cell line). Cells were kept at 37° C. in a humidified incubator in an atmosphere of 5% CO2/95% air and were passaged 1:4 three times a week. Cells were plated at 1.5−2.5×10^4 cell/well on standard 96-well microplates, measurements of cytosolic calcium ion concentration ([Ca^2+]i) were carried out 1-2 days after cell plating.
Measurements of [Ca^2+]i were carried out on CHO-B1 and CHO-B2 cells stably expressing human B1 and B2 receptors, respectively. Cells were grown in standard 96-well microplates and before the measurement were loaded with a fluorescent Ca^2+-sensitive dye, fluo-4/AM (2 μM): after removing the culture medium the dye was added to the cells (dissolved in assay buffer: 145 mM NaCl, 5 mM KCl, 2 mM MgCl2, 2 mM CaCl2, 10 mM HEPES, 20 mM D-glucose, 2 mM probenecid, 100 μl/well) and cells were incubated at 37° C. in a humidified incubator in an atmosphere of 5% CO2/95% air for 40-120 min. To stop dye loading cells were washed twice with assay buffer. After washing, various concentrations of the test compounds (diluted in extracellular medium from a DMSO stock solution, final DMSO concentration was <0.1%) or buffer were added to each well depending on the experimental setup. After incubation at 37° C. for 20-25 min. baseline and agonist-evoked changes of [Ca^2+]i were measured column by column with a plate reader fluorimeter (Fluoroskan Ascent, Labsystems). Excitation and detection of emission was carried out from the bottom of the plate. Filters used for Fluo-4: excitation filter—485 nm, emission filter—538 nm. The whole measurement process was performed at 37° C. and was controlled by custom software. Inhibitory potency of the test compounds was assessed by measuring the reduction in the agonist-evoked [Ca^2+]i-elevation in the presence of different concentrations of the compounds. The agonists were LysDABK for CHO-B1, and bradykinin for CHO-B2 cells. Agonists were applied at an EC80 concentration, the EC80-values were derived from daily determined dose-response curves. Fluorescence data were expressed as ΔF/F (fluorescence change normalized to baseline). All treatments on a single plate were measured in multiple wells. Data from all wells with the same treatment were averaged and the average values were used for analysis. Inhibitory potency of a compound at a single concentration point was expressed as percent inhibition of the control agonist response. Sigmoidal concentration-inhibition curves were fitted to the data (derived from at least three independent experiments) and IC50-values were determined as the concentration that produces half of the maximal inhibition caused by the compound.

[2] = biological target: T2, human recombinant bradykinin B1 receptor (Homo sapiens, UniProt P46663); assay: Human recombinant bradykinin B1 receptor binding
T2 construct: purchased Euroscreen ES-091; host or cells: CHO cells
T2 sequence (P46663 1-353): T1 sequence (P46663 1-353)
Experimental: 1. Human Recombinant Bradykinin B1 Receptor Binding
Binding assays were carried out on human recombinant bradykinin) receptors (expressed in CHO cells) according to the Euroscreen Technical Data Sheet (Cat. No.: ES-091). 20 μg protein/tube was incubated with [3,4-prolyl-3,4-^3H(N)]-[Des-Arg^10] Kallidin as radioligand. Non specific binding was determined in the presence of 10 μM Lys-des-Arg^9-Bradykinin. The final incubation volume was 250 μl. Samples were incubated for 15 min. at 25° C. then were rapidly vacuum filtered through GF/B filters presoaked for at least 1 h in 0.5% PEI. Radioactivity was determined by liquid scintillation spectroscopy.

[3] = CHO-B1 cells, inhibition of LysDABK (EC80)-evoked [Ca2+]i elevation, read-out: B1 func.
[4] = CHO cell membranes, [3H]-[Des-Arg10] Kallidin radioligand, read-out: B1 binding
[5] = reference compounds, functional test, read-out: IC50
[6] = reference compounds, binding test, read-out: Ki

| Structure (SMILES) | pIC50 [1, 3] | pKi [2, 4] | pIC50 [1, 5] | pKi [2, 6] |
| --- | --- | --- | --- | --- |
| CN(C)CCN1CCN(C(=O)CNC(=O)c2ccc(S(=O)(=O)Nc3ccccc3Sc3ccccc3)cc2)CC1 [Example 4, N-{2-[4-(2-Dimethylamino-ethyl)-piperazin-1-yl]-2-oxo-ethyl}-4-(2-phenylsulfanyl-phenylsulfamoyl)-benzamide] | 7.00 to 7.70 | 7.00 to 7.70 | – | – |
| O=C(NCC(=O)N1CCC(CCN2CCCC2)CC1)c1ccc(S(=O)(=O)Nc2ccccc2Sc2ccccc2)cc1 [Example 2, N-{2-oxo-2-[4-(2-pyrrolidin-1-yl-ethyl)-piperidin-1-yl]-ethyl}-4-(2-phenylsulfanyl-Phenylsulfamoyl)-benzamide] | > 7.70 | > 7.70 | – | – |
| O=C(NCC(=O)N1CCN(CCCN2CCCC2)CC1)c1ccc(S(=O)(=O)Nc2ccccc2Sc2ccccc2)cc1 [Example 5, N-{2-Oxo-2-[4-(3-pyrrolidin-1-yl-propyl)-piperazin-1-yl]-ethyl}-4-(2-phenylsulfanyl-phenylsulfamoyl)-benzamide] | 7.00 to 7.70 | 7.00 to 7.70 | – | – |
| CN1CCN(C(=O)C2CCN(S(=O)(=O)c3ccc(NCC(c4ccccc4)c4ccccc4)c(C(=O)N4CCOCC4)c3)CC2)CC1 [NVP-SAA164, 4-{2-[(2,2-diphenyl-ethyl)-amino]-5-{4-[4-[(4-methyl-1-piperazinyl)-carbonyl]-1-piperidinyl]-sulfonyl}-benzoyl}-morfoline, reference compound] | – | – | 7.48 | 8.10 |
| CCCN1C(=O)[C@H](NC(=O)Nc2ccc(N3CCC(N4CCCCC4)CC3)cc2)N=C(c2ccc(C)cc2)c2ccccc21 [compound 3, N-[4-(4′-bipiperidin)-1′-ylphenyl]-N′-[(3R)-2,3-dihydro-5-(4-methyl-phenyl)-2-oxo-1-propyl-1H-1,4-benzodiazepin-3-yl]-urea, reference compound] | – | – | 7.19 | 7.87 |
| CN(C)CCCN1CCN(C(=O)CNC(=O)c2ccc(S(=O)(=O)Nc3ccccc3Sc3ccccc3)cc2)CC1 [Example 6, N-{2-[4-(3-Dimethylamino-propyl)-piperazin-1-yl]-2-oxo-ethyl}-4-(2-phenylsulfanyl-phenylsulfamoyl)-benzamide] | 7.00 to 7.70 | 7.00 to 7.70 | – | – |
| O=C(NCC(=O)N1CCCN(CCCN2CCCC2)CC1)c1ccc(S(=O)(=O)Nc2ccccc2Sc2ccccc2)cc1 [Example 7, N-{2-Oxo-2-[4-(3-pyrrolidin-1-yl-propyl)-[1,4]diazepan-1-yl]-ethyl}-4-(2-phenylsulfanyl-phenylsulfamoyl)-benzamide] | 7.00 to 7.70 | 7.00 to 7.70 | – | – |
| O=C(NCC(=O)N1CCC(N2CCCC2)CC1)c1ccc(S(=O)(=O)Nc2ccccc2Sc2ccccc2)cc1 [Example 3, N-[2-Oxo-2-(4-pyrrolidin-1-yl-piperidin-1-yl)-ethyl]-4-(2-phenylsulfanyl-phenylsulfamoyl)-benzamide] | > 7.70 | > 7.70 | – | – |

Continued, in another order:

| pIC50 [1, 3] | pKi [2, 4] | Structure (SMILES) | pIC50 [1, 5] | pKi [2, 6] |
| --- | --- | --- | --- | --- |
| 7.00 to 7.70 | 7.00 to 7.70 | CN1CCCC(CN2CCN(C(=O)CNC(=O)c3ccc(S(=O)(=O)Nc4ccccc4Sc4ccccc4)cc3)CC2)C1 (centres unmarked) [Example 8, N-{2-[4-(1-Methyl-piperidin-3-ylmethyl)-piperazin-1-yl]-2-oxo-ethyl}-4-(2-phenylsulfanyl-phenylsulfamoyl)-benzamide] | – | – |
| > 7.70 | > 7.70 | O=C(CNC(=O)c1ccc(S(=O)(=O)Nc2ccccc2Sc2ccccc2)cc1)NCC1CCNCC1 [Example 39, 4-(2-Phenylsulfanyl-phenylsulfamoyl)-N-{[(piperidin-4-ylmethyl)-carbamoyl]-methyl}-benzamide hydrochloride] | – | – |
| > 7.70 | > 7.70 | O=C(N[C@H](Cc1ccc(O)cc1)C(=O)N1CCC(O)CC1)c1ccc(S(=O)(=O)Nc2ccccc2Oc2ccccc2)cc1 [Example 29, (R)—N-[1-(4-Hydroxy-benzyl)-2-(4-hydroxy-piperidin-1-yl)-2-oxo-ethyl]-4-(2-phenoxy-phenylsulfamoyl)-benzamide] | – | – |
| > 7.70 | > 7.70 | O=C(N[C@@H](Cc1ccc(O)cc1)C(=O)N1CCC(N2CCCC2)CC1)c1ccc(S(=O)(=O)Nc2ccccc2Oc2ccccc2)cc1 [Example 33, (S)—N-[1-(4-Hydroxy-benzyl)-2-oxo-2-(4-pyrrolidin-1-yl-piperidin-1-yl)-ethyl]-4-(2-phenoxy-phenylsulfamoyl)-benzamide] | – | – |
| > 7.70 | > 7.70 | O=C(N[C@@H](Cc1ccc(O)cc1)C(=O)N1CCC(CCO)CC1)c1ccc(S(=O)(=O)Nc2ccccc2Oc2ccccc2)cc1 [Example 35, (S)—N-{1-(4-Hydroxy-benzyl)-2-[4-(2-hydroxy-ethyl)-piperidin-1-yl]-2-oxo-ethyl}-4-(2-phenoxy-phenylsulfamoyl)-benzamide] | – | – |
| > 7.70 | > 7.70 | O=C(N[C@@H](Cc1ccc(O)cc1)C(=O)N1CCC(CCN2CCCC2)CC1)c1ccc(S(=O)(=O)Nc2ccccc2Oc2ccccc2)cc1 [Example 32, (S)—N-{1-(4-Hydroxy-benzyl)-2-oxo-2-[4-(2-pyrrolidin-1-yl-ethyl)-piperidin-1-yl]-ethyl}-4-(2-phenoxy-phenylsulfamoyl)-benzamide] | – | – |
| 7.00 to 7.70 | 7.00 to 7.70 | O=C(NCC(=O)N1CCN(CCN2CCOCC2)CC1)c1ccc(S(=O)(=O)Nc2ccccc2Sc2ccccc2)cc1 [Example 9, N-{2-[4-(2-Morpholin-4-yl-ethyl)-piperazin-1-yl]-2-oxo-ethyl}-4-(2-phenylsulfanyl-phenylsulfamoyl)-benzamide] | – | – |
| > 7.70 | > 7.70 | CN1CCC(N2CCN(C(=O)[C@H](Cc3ccc(O)cc3)NC(=O)c3ccc(S(=O)(=O)Nc4ccccc4Oc4ccccc4)cc3)CC2)CC1 [Example 37, (S)—N-{1-(4-Hydroxy-benzyl)-2-[4-(1-methyl-piperidin-4-yl)-piperazin-1-yl]-2-oxo-ethyl}-4-(2-phenoxy-phenylsulfamoyl)-benzamide] | – | – |
| > 7.70 | > 7.70 | C[C@H](NC(=O)c1ccc(S(=O)(=O)Nc2ccccc2Oc2ccccc2)cc1)C(=O)N1CCC(CCN2CCCC2)CC1 [Example 26, (S)—N-{1-Methyl-2-oxo-2-[4-(2-pyrrolidin-1-yl-ethyl)-piperidin-1-yl]-ethyl}-4-(2-phenoxy-phenylsulfamoyl)-benzamide] | – | – |
| > 7.70 | > 7.70 | O=C(N[C@H](Cc1ccc(O)cc1)C(=O)N1CCC(CO)CC1)c1ccc(S(=O)(=O)Nc2ccccc2Oc2ccccc2)cc1 [Example 30, (R)—N-[1-(4-Hydroxy-benzyl)-2-(4-hydroxymethyl-piperidin-1-yl)-2-oxo-ethyl]-4-(2-phenoxy-phenylsulfamoyl)-benzamide] | – | – |
| > 7.70 | > 7.70 | O=C(N[C@H](Cc1ccc(O)cc1)C(=O)N1CCC(CCN2CCCC2)CC1)c1ccc(S(=O)(=O)Nc2ccccc2Oc2ccccc2)cc1 [Example 31, (R)—N-{1-(4-Hydroxy-benzyl)-2-oxo-2-[4-(2-pyrrolidin-1-yl-ethyl)-piperidin-1-yl]-ethyl}-4-(2-phenoxy-phenylsulfamoyl)-benzamide] | – | – |
